Source: patent US8835472B2, “Compounds, pharmaceutical compositions and uses thereof” (Boehringer Ingelheim International GmbH, priority 2010, dated 2014)

Biological target: human ACC2 (Homo sapiens (Human), UniProt O00763)
Test: ACC2 assay, spectrophotometric 384 well assay (NADH-linked, coupled lactate dehydrogenase/pyruvate kinase reaction)
Assay type: biochemical
Settings: hACC2 construct lacking the 128 N-terminal amino acids; 25° C., 340 nm over 15 minutes
Summary of the method: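 Kinetic NADH-linked assay (pyruvate kinase/lactate dehydrogenase coupling) with baculovirus-expressed hACC2 missing its first 128 amino acids. Started with 500 μM ATP and 200 μM each NADH and acetyl-CoA; slope followed 15 min at 25 °C, pH 7.5. No-acetyl-CoA wells define 0%; IC50 by nonlinear regression.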

Sequence of human ACC2 (O00763 129-2458): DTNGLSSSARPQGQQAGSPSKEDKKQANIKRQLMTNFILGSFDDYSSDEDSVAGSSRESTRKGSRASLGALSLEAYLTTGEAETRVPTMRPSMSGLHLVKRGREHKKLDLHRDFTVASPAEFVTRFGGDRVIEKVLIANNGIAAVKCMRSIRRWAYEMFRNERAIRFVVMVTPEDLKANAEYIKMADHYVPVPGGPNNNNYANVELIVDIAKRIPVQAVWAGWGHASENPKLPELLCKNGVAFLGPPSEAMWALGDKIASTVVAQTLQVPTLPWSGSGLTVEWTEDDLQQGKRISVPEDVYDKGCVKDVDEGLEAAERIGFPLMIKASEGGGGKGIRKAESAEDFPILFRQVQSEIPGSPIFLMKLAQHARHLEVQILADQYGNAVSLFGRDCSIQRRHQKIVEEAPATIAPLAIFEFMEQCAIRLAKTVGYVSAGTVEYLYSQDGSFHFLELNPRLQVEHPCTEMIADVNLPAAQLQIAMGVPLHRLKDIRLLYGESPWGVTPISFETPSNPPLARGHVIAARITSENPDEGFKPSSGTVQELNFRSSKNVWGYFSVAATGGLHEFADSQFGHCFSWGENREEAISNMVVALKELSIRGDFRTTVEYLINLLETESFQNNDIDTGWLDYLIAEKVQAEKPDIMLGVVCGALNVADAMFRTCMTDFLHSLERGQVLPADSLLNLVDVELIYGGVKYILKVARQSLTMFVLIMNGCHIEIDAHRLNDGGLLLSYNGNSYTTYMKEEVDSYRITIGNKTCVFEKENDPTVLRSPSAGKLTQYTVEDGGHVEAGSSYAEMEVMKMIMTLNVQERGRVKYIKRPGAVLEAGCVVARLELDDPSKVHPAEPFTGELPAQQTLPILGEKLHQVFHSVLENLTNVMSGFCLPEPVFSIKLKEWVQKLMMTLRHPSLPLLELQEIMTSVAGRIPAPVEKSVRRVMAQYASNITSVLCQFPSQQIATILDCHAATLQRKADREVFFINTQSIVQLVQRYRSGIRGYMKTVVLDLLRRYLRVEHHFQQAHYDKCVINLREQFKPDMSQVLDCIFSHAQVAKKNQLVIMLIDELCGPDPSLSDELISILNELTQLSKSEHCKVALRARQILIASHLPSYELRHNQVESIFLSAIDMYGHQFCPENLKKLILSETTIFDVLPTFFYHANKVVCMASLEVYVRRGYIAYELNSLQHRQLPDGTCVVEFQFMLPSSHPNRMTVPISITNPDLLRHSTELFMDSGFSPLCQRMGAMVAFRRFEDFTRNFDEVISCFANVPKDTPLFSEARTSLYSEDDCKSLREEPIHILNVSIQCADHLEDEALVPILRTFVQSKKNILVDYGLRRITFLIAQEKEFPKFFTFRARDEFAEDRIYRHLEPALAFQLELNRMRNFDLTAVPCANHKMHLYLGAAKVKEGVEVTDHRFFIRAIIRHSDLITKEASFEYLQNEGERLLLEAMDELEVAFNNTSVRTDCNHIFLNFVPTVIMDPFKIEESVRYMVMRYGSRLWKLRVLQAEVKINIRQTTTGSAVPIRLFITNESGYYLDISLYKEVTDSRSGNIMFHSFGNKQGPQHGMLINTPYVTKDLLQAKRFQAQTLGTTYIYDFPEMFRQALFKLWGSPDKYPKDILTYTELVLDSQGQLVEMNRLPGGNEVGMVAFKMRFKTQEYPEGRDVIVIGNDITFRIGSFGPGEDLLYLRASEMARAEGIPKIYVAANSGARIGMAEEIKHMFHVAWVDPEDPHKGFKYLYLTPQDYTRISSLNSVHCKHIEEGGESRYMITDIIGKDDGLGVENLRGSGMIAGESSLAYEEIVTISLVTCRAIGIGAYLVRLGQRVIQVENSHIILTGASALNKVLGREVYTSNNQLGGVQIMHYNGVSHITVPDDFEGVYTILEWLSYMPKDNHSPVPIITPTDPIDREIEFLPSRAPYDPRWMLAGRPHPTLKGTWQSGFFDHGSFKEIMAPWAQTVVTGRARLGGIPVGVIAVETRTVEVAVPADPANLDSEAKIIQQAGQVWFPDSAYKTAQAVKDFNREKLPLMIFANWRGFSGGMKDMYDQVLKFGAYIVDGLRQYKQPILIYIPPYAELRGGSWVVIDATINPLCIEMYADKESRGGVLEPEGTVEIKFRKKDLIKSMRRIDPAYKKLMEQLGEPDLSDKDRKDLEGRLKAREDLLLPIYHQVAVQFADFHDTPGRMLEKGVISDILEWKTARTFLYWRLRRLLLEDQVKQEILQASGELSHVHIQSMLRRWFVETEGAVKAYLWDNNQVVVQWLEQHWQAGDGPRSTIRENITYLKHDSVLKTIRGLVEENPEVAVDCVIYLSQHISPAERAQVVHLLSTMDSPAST

Structure (SMILES)	IC50 [nM]
CCOc1ccc(C#Cc2ccc(CC(C)NC(=O)C3CC3)cc2)cc1 (stereo not drawn) [Example 4.4]	150
CCOc1ccc(C#Cc2ccc(CC(C)NC(=O)c3cnon3)cc2)cc1 (stereo not drawn) [Example 4.72]	940
CC(=O)NC(C)Cc1ccc(C#Cc2ccnc(OC(C)C)c2)cc1 (stereo not drawn) [Example 2.97]	140
CCCCn1ccc(C#Cc2ccc(CC(C)NC(C)=O)cc2)cc1=O (stereo not drawn) [Example 2.85]	1100
CCOc1ccc(C#Cc2ccc(CC(C)NC(=O)CCO)cc2)cc1 (stereo not drawn) [Example 4.18]	460
CCOc1ccc(C#Cc2ccc(C(C)NC(=O)c3cn[nH]c3)cc2)cc1 (stereo not drawn) [Example 4.55]	330
COc1ccc(C#Cc2ccc(CC(C)NC(C)=O)cc2)c(C#N)c1 (stereo not drawn) [Example 3.12]	1200
CCCOc1ccc(C#Cc2ccc(CC(C)NC(=O)C3CC3)cc2)c(OC)c1 (stereo not drawn) [Example 2.68]	250
CCOc1ccc(C#Cc2ccc(C(C)NC(=O)N(C)C)cc2)cc1 (stereo not drawn) [Example 7.1, 3-(1-(4-((4-Ethoxyphenyl)ethynyl)phenyl)ethyl)-1,1-dimethylurea]	620
CNC(=O)c1ccc(C#Cc2ccc(CC(C)NC(C)=O)cc2)cc1 (stereo not drawn) [Example 8.44]	22100
CCn1ccc(C#Cc2ccc(CC(C)NC(C)=O)cc2)cc1=O (stereo not drawn) [Example 2.87]	12900
CCCc1ccc(C#Cc2ccc(CC(C)NC(=O)C3CC3)cc2)cc1 (stereo not drawn) [Example 2.63]	460
CCOc1ccc(C#Cc2ccc(C(C)NC(=O)c3cocn3)cc2)cc1 (stereo not drawn) [Example 4.54]	30000
CCOc1ccc(C#Cc2ccc(CC(C)NC(=O)C3(O)CC3)cc2)cc1 (stereo not drawn) [Example 4.12]	560
CC(=O)NC(C)c1ccc(C#Cc2cnn(Cc3ccccc3)c2)cc1 (stereo not drawn) [Example 2.105]	930
CCCN(C)C(=O)c1ccc(C#Cc2ccc(CC(C)NC(C)=O)cc2)cc1 (stereo not drawn) [Example 8.10]	1100

Structure (SMILES)	IC50 [nM]
CC(=O)NC(C)Cc1ccc(C#Cc2ccc(C)cc2Cl)cc1 (stereo not drawn) [Example 3.2]	270
CCCCOc1ccc(C#Cc2ccc(CC(C)NC(C)=O)cc2)nn1 (stereo not drawn) [Example 2.88]	880
CCOc1ccc(C#Cc2ccc(CC(C)NC(=O)c3cncs3)cc2)cc1 (stereo not drawn) [Example 4.67]	70
CC(=O)NC(C)Cc1ccc(C#Cc2cccc(C(=O)NCC3CC3)c2)cc1 (stereo not drawn) [Example 8.28]	5000
CCCOc1ccc(C#Cc2ccc(CC(C)NC(C)=O)cc2)c(C#N)c1 (stereo not drawn) [Example 2.92]	170
CC(Cc1ccc(C#Cc2ccc(-c3ccc(F)cc3)cn2)cc1)NC(=O)C1CC1 (stereo not drawn) [Example 1.31]	450
CC(=O)NC(C)c1ccc(C#Cc2ccc(OC(C)C)nc2)cc1 (stereo not drawn) [Example 2.50]	900
CC(=O)NC(C)Cc1ccc(C#Cc2ccc(C(=O)NCC3CCCO3)cc2)cc1 (stereo not drawn) [Example 8.7]	26300
CC(=O)NC(C)Cc1ccc(C#Cc2cccc(C(=O)N(C)Cc3ccncc3)c2)cc1 (stereo not drawn) [Example 8.39]	13400
CCOc1ccc(C#Cc2ccc(CC(C)NC(=O)C3CNC(=O)C3)cc2)cc1 (stereo not drawn) [Example 4.32]	440
CCCOc1ccc(C#Cc2ccc(CC(C)NC(C)=O)cc2)cn1 (stereo not drawn) [Example 2.27]	280
CC(=O)NC(C)Cc1ccc(C#Cc2ccc(C(=O)N(C)Cc3ccccc3)cc2)cc1 (stereo not drawn) [Example 8.9]	3700
CC(=O)NC(C)Cc1ccc(C#Cc2ccc(C(=O)NC3CCC3)cc2)cc1 (stereo not drawn) [Example 8.21]	1400
CC(=O)NC(C)Cc1ccc(C#Cc2cc(OCc3ccccc3)ncn2)cc1 (stereo not drawn) [Example 2.78]	750
CCOc1ccc(C#Cc2ccc(CC(C)NC(=O)C3CCOC3)cc2)cc1 (stereo not drawn) [Example 4.33]	490

Other lines, results leading:

IC50 [nM]	Structure (SMILES)
2100	CCOc1ncc(C#Cc2ccc([C@H](C)NC(=O)C3CC3)cc2)cn1 [Example 12.66]
200	CC(=O)NC(C)Cc1ccc(C#Cc2ccc(OC3COC3)cc2)cc1 (stereo not drawn) [Example 31.2]
130	CC(CNC(=O)N(C)C)c1ccc(C#Cc2cnc(OC3CCC3)nc2)cc1 (stereo not drawn) [Example 33.2]
1500	CC(=O)NC(C)Cc1ccc(C#Cc2cnc(OCc3cncs3)nc2)cc1 (stereo not drawn) [Example 12.36]
800	CC(=O)NC(C)Cc1ccc(C#Cc2cnc(N3Cc4ccccc4C3)nc2)cc1 (stereo not drawn) [Example 13.64]
1100	COC(=O)NC(C)Cc1ccc(C#Cc2cnc(OC(C)C)nc2)cc1 (stereo not drawn) [Example 12.28]
580	CC(Cc1ccc(C#Cc2cnc(N3CC4CCCC4C3)nc2)cc1)NC(=O)C1CC1 (stereo not drawn) [Example 13.43]
330	CCCOc1ccc(C#Cc2ccc(CC(C)(C)NC(=O)C3CC3)cc2)cc1 [Example 35.2]
220	CSc1ccc(C#Cc2ccc(CC(C)NC(C)=O)cc2)cc1 (stereo not drawn) [Example 23.10]
5900	CCOc1ccc(C#Cc2ccc(C(C)NC(C)=O)cc2)cn1 (stereo not drawn) [Example 14.2]
260	CC(=O)NC(C)Cc1ccc(C#Cc2ccc(OCc3ccco3)cc2)cc1 (stereo not drawn) [Example 9.16]
1000	CCC(C)CNc1ncc(C#Cc2ccc(CC(C)NC(C)=O)cc2)cn1 (stereo not drawn) [Example 13.84]
2600	CC(C)Nc1ncc(C#Cc2ccc(CC(C)NC(=O)C3CC3)cc2)cn1 (stereo not drawn) [Example 13.49]
4500	C[C@H](NC(=O)C1CC1)c1ccc(C#Cc2cnc(OCC3CC3)nc2)cc1 [Example 12.58]
13400	CCCOc1cc(C#Cc2ccc([C@@H](C)NC(C)=O)cc2)ccn1 [Example 14.22]
1600	CC(=O)NC(C)Cc1ccc(C#Cc2ccnc(OCC3CC3)n2)cc1 (stereo not drawn) [Example 12.5]
2400	CCNc1ncc(C#Cc2ccc(CC(C)NC(=O)OC)cc2)cn1 (stereo not drawn) [Example 13.41]
1000	CC(Cc1ccc(C#Cc2ccc(C(C)(C)C)cc2)cc1)NC(=O)C1CC1 (stereo not drawn) [Example 14.45]
1100	CCC(COC)Oc1ncc(C#Cc2ccc(CC(C)NC(C)=O)cc2)cn1 (stereo not drawn) [Example 12.37]

IC50 [nM]	Structure (SMILES)
1800	CCOc1ccc(C#Cc2ccc([C@H](C)NC(C)=O)cc2)cn1 [Example 14.25]
970	CC(=O)NC(C)Cc1ccc(C#Cc2cnc(NCc3cccc(C)c3)nc2)cc1 (stereo not drawn) [Example 13.56]
190	CC(=O)NC(C)Cc1ccc(C#Cc2ccc(OC3CCCOC3)cc2)cc1 (stereo not drawn) [Example 9.29]
860	COC(=O)NC(C)Cc1ccc(C#Cc2cnc(Oc3ccccc3)nc2)cc1 (stereo not drawn) [Example 12.27]
1100	CC(=O)NC(C)Cc1ccc(C#Cc2cnc(OCCF)nc2)cc1 (stereo not drawn) [Example 12.31]
190	CC(=O)NC(C)Cc1ccc(C#Cc2cnc(NCCC(C)(C)C)nc2)cc1 (stereo not drawn) [Example 13.83]
21500	CC(=O)NC(C)(C)c1ccc(C#Cc2cnc(OC3CCC3)nc2)cc1 [Example 23.15]
220	CC(=O)NC(C)CCc1ccc(C#Cc2ccc(OCC(C)C)cc2)cc1 (stereo not drawn) [Example 14.13]
750	CC(=O)NC(C)Cc1ccc(C#Cc2ccnc(N(C)C(C)C)n2)cc1 (stereo not drawn) [Example 11.8]
930	CC(=O)NC(C)Cc1ccc(C#Cc2ccnc(N3CCCC3)n2)cc1 (stereo not drawn) [Example 11.43]
160	CC(=O)NC(C)CCc1ccc(C#Cc2ccc(OC3CCCC3)cc2)cc1 (stereo not drawn) [Example 14.14]
1800	CCOc1ccc(C#Cc2ccc(CC(C)N3CC(C)(C)C3=O)cc2)cc1 (stereo not drawn) [19.1]
610	COCCOc1ccc(C#Cc2ccc(CC(C)NC(C)=O)cc2)cc1 (stereo not drawn) [Example 9.4]
1500	CC(=O)NC(C)Cc1ccc(C#Cc2cnc(Oc3cccnc3)nc2)cc1 (stereo not drawn) [Example 12.51]
690	CC(=O)NC(C)Cc1ccc(C#Cc2ccc(OCc3cncs3)cc2)cc1 (stereo not drawn) [Example 9.28]
430	CC(=O)NC(C)Cc1ccc(C#Cc2ccnc(N3CCC4(CCC4)C3)n2)cc1 (stereo not drawn) [Example 11.26]
360	CC(Cc1ccc(C#Cc2ccc(Oc3ccccc3)nc2)cc1)NC(=O)C1CC1 (stereo not drawn) [Example 14.43]
320	CCOc1ccc(C#Cc2ccc([C@H](C)NC(=O)C3CC3)cc2)cc1 [Example 14.49]
230	CC(=O)NC(C)Cc1ccc(C#Cc2cnc(NC(C)C(C)C)nc2)cc1 (stereo not drawn) [Example 13.11]

IC50 [nM]	Structure (SMILES)
590	CC(Cc1ccc(C#Cc2cnc(Oc3ccccc3)nc2)cc1)NC(=O)C1CC1 (stereo not drawn) [Example 12.24]
260	CC(=O)NC(C)Cc1ccc(C#Cc2ccnc(N(C)C3CCCCC3)n2)cc1 (stereo not drawn) [Example 11.11]
630	CC(=O)NC(C)Cc1ccc(C#Cc2ccc(OCc3cccnc3)cc2)cc1 (stereo not drawn) [Example 9.42]
790	CC(=O)N[C@@H](C)c1ccc(C#Cc2cnc(OCc3ccoc3)nc2)cc1 [Example 12.61]
80	C=C1CCN(c2ncc(C#Cc3ccc(CC(C)NC(C)=O)cc3)cn2)CC1 (stereo not drawn) [Example 13.85]
230	CCCOc1ncc(C#Cc2ccc(CC(C)NC(C)=O)cc2)cn1 (stereo not drawn) [Example 12.15]
450	CCCOc1cc(C#Cc2ccc(C(C)NC(C)=O)cc2)ccn1 (stereo not drawn) [Example 14.3]
190	CCCOc1ncc(C#Cc2ccc(CC(C)NC(=O)N(C)C)cc2)cn1 (stereo not drawn) [Example 12.30]
16700	CC(=O)NC(C)Cc1ccc(C#Cc2ccnc(N3CCC(CO)C3)n2)cc1 (stereo not drawn) [Example 11.10]
640	CC(=O)NC(C)Cc1ccc(C#Cc2ccc(OCc3cc(C)on3)cc2)cc1 (stereo not drawn) [Example 9.27]
100	CC(=O)NC(C)Cc1ccc(C#Cc2ccc(OC3CCCC3)cc2)cc1 (stereo not drawn) [Example 9.2]
170	CC(=O)N[C@@H](C)Cc1ccc(C#Cc2ccc(Oc3ccccc3)nc2)cc1 [Example 24.3]
1500	CC(=O)NC(C)Cc1ccc(C#Cc2ccc(OC(F)(F)F)cc2)cc1 (stereo not drawn) [Example 14.50]
250	CC(=O)NC(C)Cc1ccc(C#Cc2ccc(OCc3ccoc3)cc2)cc1 (stereo not drawn) [Example 9.26]
610	CC(=O)NC(C)Cc1ccc(C#Cc2ccc(OCC3CCCCO3)cc2)cc1 (stereo not drawn) [Example 9.17]
330	CC(=O)NC(C)Cc1ccc(C#Cc2ccnc(N(C)C3CCCC3)n2)cc1 (stereo not drawn) [30.1]
22100	CC(=O)NC(C)Cc1ccc(C#Cc2ccc(OCCN3CCCCC3)cc2)cc1 (stereo not drawn) [Example 9.5]
260	CC(=O)NC(C)Cc1ccc(C#Cc2cnc(N3CCCCC3)nc2)cc1 (stereo not drawn) [Example 13.7]
